In the supplement of paper PMC10307832:

Compound: CC(C)N(CCCNC(=O)Nc1ccc(C(C)(C)C)cc1)C[C@H]1O[C@@H](n2ccc3c(N)ncnc32)[C@H](O)[C@@H]1O + Cc1cc(Nc2cc(N3CCN(C)CC3)nc(Sc3ccc(NC(=O)C4CC4)cc3)n2)n[nH]1 [Tozasertib] (partner 0.1 µM)
Assay: relative viability (nuclei count vs DMSO), 5 days (fraction); higher = more cells survive
Conditions: first compound 0.08 µM
Method in brief: (§1)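 Relative viability was taken as the ratio of nuclei in treated wells to nuclei in vehicle wells. Lung cancer cell lines in 1536-well plates received compounds by pin tool one day after seeding, either one drug alone or a fixed anchor-drug dose plus five library-drug doses (not always all listed) in √10 steps. Nuclei were counted on 4× images after 5 days of treatment, and values are medians of duplicate plates.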

In order of rising relative viability:
1. NCI-H358  0.112
2. ABC-1  0.183
3. SW 1573  0.201
4. NCI-H1944  0.253
5. EPLC-272H  0.315
6. NCI-H1793  0.345
7. SK-LU-1  0.35
8. HCC-15  0.354
9. NCI-H1437  0.405
10. NCI-H23  0.41
11. EKVX  0.449
12. LC-2-ad  0.475
13. NCI-H322M  0.484
14. RERF-LC-KJ  0.505
15. NCI-H1355  0.581
16. NCI-H1755  0.637
17. NCI-H727  0.667
18. NCI-H1975  0.696
19. NCI-H2085  0.746

Same assay, conditions: first compound 0.253 µM

In order of rising relative viability:
1. NCI-H358  0.117
2. SW 1573  0.151
3. ABC-1  0.174
4. LXF-289  0.199
5. A-427  0.208
6. EPLC-272H  0.215
7. NCI-H1734  0.249
8. NCI-H1944  0.261
9. NCI-H838  0.264
10. CAL-12T  0.315
11. NCI-H661  0.345
12. EKVX  0.347
13. NCI-H23  0.378
14. NCI-H1437  0.38
15. NCI-H1915  0.401
16. SK-LU-1  0.41
17. HCC-827  0.425
18. LC-2-ad  0.432
19. NCI-H322M  0.434
20. NCI-H460  0.435
21. NCI-H2347  0.492
22. RERF-LC-KJ  0.495
23. NCI-H1355  0.536
24. HCC-15  0.542
25. NCI-H1755  0.564
26. NCI-H727  0.656
27. NCI-H1395  0.731
28. NCI-H1651  0.752
29. NCI-H1975  0.765
30. NCI-H2085  0.78
31. NCI-H2405  0.82
32. 201T  0.896

Same assay, conditions: first compound 0.8 µM

In order of falling relative viability:
1. 201T  0.974
2. NCI-H2085  0.797
3. NCI-H2405  0.783
4. NCI-H596  0.744
5. NCI-H1975  0.741
6. NCI-H727  0.697
7. NCI-H1395  0.63
8. NCI-H1651  0.628
9. NCI-H1355  0.574
10. RERF-LC-KJ  0.546
11. NCI-H322M  0.493
12. NCI-H2347  0.48
13. NCI-H1755  0.464
14. LC-2-ad  0.442
15. NCI-H1915  0.434
16. NCI-H1437  0.409
17. EKVX  0.373
18. HCC-15  0.369
19. NCI-H661  0.362
20. NCI-H1793  0.356
21. SK-LU-1  0.352
22. NCI-H460  0.346
23. NCI-H838  0.341
24. CAL-12T  0.309
25. EPLC-272H  0.287
26. NCI-H23  0.281
27. NCI-H1734  0.277
28. NCI-H1944  0.251
29. SW 1573  0.201
30. A-427  0.193
31. LXF-289  0.131
32. NCI-H358  0.119

Same assay, conditions: first compound 2.53 µM

In order of rising relative viability:
1. NCI-H358  0.0915
2. LXF-289  0.176
3. ABC-1  0.183
4. SW 1573  0.193
5. A-427  0.204
6. EPLC-272H  0.217
7. NCI-H1944  0.239
8. NCI-H1734  0.246
9. NCI-H838  0.275
10. CAL-12T  0.293
11. NCI-H1793  0.33
12. NCI-H661  0.35
13. NCI-H23  0.355
14. NCI-H1437  0.372
15. NCI-H1915  0.388
16. HCC-15  0.401
17. EKVX  0.434
18. HCC-827  0.436
19. LC-2-ad  0.485
20. NCI-H460  0.488
21. SK-LU-1  0.49
22. NCI-H322M  0.499
23. NCI-H1355  0.501
24. RERF-LC-KJ  0.509
25. NCI-H2347  0.539
26. NCI-H1755  0.573
27. NCI-H1975  0.597
28. NCI-H727  0.621
29. NCI-H1651  0.725
30. NCI-H1395  0.774
31. NCI-H2405  0.822
32. NCI-H2085  0.854
33. 201T  0.898
34. NCI-H596  0.97

Same assay, conditions: first compound 8 µM

In order of falling relative viability:
1. 201T  0.902
2. NCI-H596  0.897
3. NCI-H1395  0.741
4. NCI-H2085  0.716
5. NCI-H2405  0.703
6. NCI-H2347  0.654
7. NCI-H727  0.642
8. NCI-H1651  0.579
9. NCI-H1975  0.569
10. NCI-H1355  0.55
11. NCI-H23  0.546
12. NCI-H1755  0.54
13. NCI-H322M  0.499
14. RERF-LC-KJ  0.474
15. NCI-H460  0.453
16. NCI-H1915  0.426
17. HCC-827  0.412
18. LC-2-ad  0.41
19. NCI-H1437  0.389
20. EKVX  0.388
21. NCI-H1793  0.386
22. NCI-H661  0.37
23. SK-LU-1  0.346
24. HCC-15  0.337
25. CAL-12T  0.29
26. NCI-H1734  0.258
27. NCI-H1944  0.246
28. EPLC-272H  0.244
29. NCI-H838  0.233
30. A-427  0.206
31. ABC-1  0.178
32. LXF-289  0.174
33. SW 1573  0.163
34. NCI-H358  0.112

Compound: CC(C)=CC[C@@H](O)C1=CC(=O)c2c(O)ccc(O)c2C1=O [Shikonin] + O=C(CCCCCCC(=O)Nc1ccccc1)NO [Vorinostat] (partner 1 µM)
Assay: as above
Conditions: first compound 0.01 µM
Method in brief: as §1

In order of rising relative viability:
1. EPLC-272H  0.378
2. NCI-H596  0.45
3. NCI-H1915  0.511
4. NCI-H1944  0.521
5. NCI-H1651  0.553
6. NCI-H2347  0.567
7. NCI-H23  0.611
8. EKVX  0.634
9. NCI-H1755  0.637
10. NCI-H1355  0.65
11. NCI-H322M  0.672
12. NCI-H1395  0.675
13. NCI-H1975  0.687
14. LC-2-ad  0.696
15. NCI-H838  0.704
16. RERF-LC-KJ  0.709
17. NCI-H1734  0.732
18. SW 1573  0.739
19. NCI-H1793  0.752
20. NCI-H2085  0.78
21. LXF-289  0.787
22. HCC-827  0.831
23. NCI-H661  0.837
24. CAL-12T  0.842
25. SK-LU-1  0.844
26. A-427  0.862
27. NCI-H1437  0.886
28. NCI-H460  0.919
29. HCC-15  0.986
30. NCI-H358  0.999
31. 201T  1.02
32. NCI-H2405  1.11
33. ABC-1  1.2
34. NCI-H727  1.32

Same assay, conditions: first compound 0.1 µM

In order of rising relative viability:
1. EPLC-272H  0.353
2. NCI-H1944  0.521
3. NCI-H2347  0.529
4. NCI-H1915  0.612
5. NCI-H596  0.616
6. NCI-H1651  0.617
7. NCI-H1355  0.623
8. NCI-H358  0.67
9. NCI-H1395  0.705
10. EKVX  0.711
11. NCI-H23  0.75
12. NCI-H838  0.753
13. LC-2-ad  0.759
14. LXF-289  0.764
15. NCI-H1975  0.785
16. CAL-12T  0.802
17. NCI-H1755  0.807
18. NCI-H1734  0.818
19. NCI-H661  0.833
20. RERF-LC-KJ  0.836
21. NCI-H1437  0.841
22. HCC-15  0.841
23. SK-LU-1  0.878
24. HCC-827  0.908
25. NCI-H322M  0.911
26. NCI-H2085  0.917
27. A-427  0.938
28. SW 1573  0.94
29. NCI-H460  0.946
30. NCI-H1793  0.974
31. 201T  1.03
32. NCI-H2405  1.12
33. ABC-1  1.15
34. NCI-H727  1.44

Same assay, conditions: first compound 0.3162 µM

In order of rising relative viability:
1. EPLC-272H  0.536
2. SW 1573  0.536
3. NCI-H1651  0.57
4. NCI-H1915  0.576
5. NCI-H23  0.59
6. NCI-H2347  0.6
7. NCI-H596  0.612
8. NCI-H1355  0.627
9. NCI-H1944  0.673
10. NCI-H1793  0.68
11. NCI-H1395  0.695
12. RERF-LC-KJ  0.718
13. LC-2-ad  0.739
14. NCI-H1734  0.765
15. NCI-H838  0.775
16. NCI-H2085  0.775
17. NCI-H1975  0.801
18. NCI-H661  0.812
19. EKVX  0.831
20. CAL-12T  0.832
21. SK-LU-1  0.853
22. NCI-H1437  0.856
23. NCI-H358  0.856
24. LXF-289  0.862
25. NCI-H1755  0.888
26. A-427  0.93
27. NCI-H322M  0.953
28. NCI-H460  0.959
29. HCC-15  1.01
30. 201T  1.02
31. NCI-H2405  1.03
32. HCC-827  1.06
33. ABC-1  1.08
34. NCI-H727  1.27

Same assay, conditions: first compound 1 µM

In order of rising relative viability:
1. SW 1573  0.306
2. EPLC-272H  0.377
3. NCI-H1915  0.479
4. NCI-H1944  0.55
5. NCI-H358  0.573
6. NCI-H2347  0.577
7. NCI-H838  0.582
8. CAL-12T  0.583
9. NCI-H1355  0.604
10. NCI-H23  0.625
11. NCI-H1651  0.636
12. NCI-H1975  0.64
13. NCI-H1755  0.665
14. LC-2-ad  0.678
15. SK-LU-1  0.704
16. NCI-H661  0.736
17. NCI-H1437  0.736
18. RERF-LC-KJ  0.757
19. NCI-H596  0.774
20. LXF-289  0.79
21. NCI-H2085  0.824
22. NCI-H460  0.828
23. ABC-1  0.837
24. NCI-H1734  0.842
25. HCC-827  0.855
26. EKVX  0.925
27. A-427  0.931
28. NCI-H1395  0.938
29. HCC-15  0.955
30. NCI-H1793  0.973
31. NCI-H322M  0.978
32. 201T  1
33. NCI-H2405  1.11
34. NCI-H727  1.14
